In patent US12570670B2, “Compounds, compositions, and methods for treating fibrosis” (YALE UNIVERSITY, priority 2019, dated 2026):
Where two headings read alike, the source gives them in different places.

Tests used:
MKP5-CD [1] = biological target: T1, MKP5-CD (Homo sapiens, UniProt Q9Y6W6); assay: Microscale thermophoresis binding assay; details: fluorescently-labeled MKP5-CD, FIG. 1D; read-out: dissociation constant (Kd)
T1 construct: The catalytic domain of MKP5 (MKP5-CD, residues 320-467) was inserted into a pET-28a vector; His-tag (N, cleaved yes); made in house; host or cells: E. coli BL21 (DE3)
T1 sequence (Q9Y6W6 320-467): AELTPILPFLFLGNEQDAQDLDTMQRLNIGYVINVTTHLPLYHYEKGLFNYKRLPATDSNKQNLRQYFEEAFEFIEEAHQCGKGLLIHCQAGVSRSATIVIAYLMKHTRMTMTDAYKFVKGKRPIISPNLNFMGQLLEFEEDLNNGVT
Experimental: (§1) Binding interactions between MKP5-CD and 1 were carried out using microscale thermophoresis (MST) on a Monolith NT.115Pico instrument. MKP5-CD was labeled for MST using NanoTemper Monolith NTTM Protein Labeling Kit RED-NHS 2nd Generation (#MO-L011). Briefly, MKP5-CD was transferred into the provided labeling buffer and diluted to 20 μM. Dye was added in a 2-fold molar excess and allowed to incubate 30 minutes at room temperature. Excess dye was removed using the provided column equilibrated in 50 mM Tris pH 8.0, 150 mM NaCl, 0.05% Tween-20. A fixed amount of labeled wild-type or mutant MKP5-CD was combined with up to 200 μM 1 and loaded into premium capillaries. MST experiments were carried out at 40% IR power for 20 seconds. Normalized fluorescence (Fnorm) values at a given time were plotted against inhibitor concentration, and the Kd was determined by fitting with a hyperbolic binding curve. Experiments were performed in triplicate and data are presented as means±SD.

[2] = biological target: T2, MKP5-CD (catalytic domain of MKP5, residues 320-467) (Homo sapiens, UniProt Q9Y6W6); assay: Malachite green phosphatase assay of MKP5-CD with p38α MAPK phosphopeptide substrate; type: biochemical
T2 construct: The catalytic domain of MKP5 (MKP5-CD, residues 320-467) was inserted into a pET-28a vector; His-tag (N, cleaved yes); made in house; host or cells: E. coli BL21 (DE3)
T2 sequence (Q9Y6W6 320-467): T1 sequence (Q9Y6W6 320-467)
Experimental: A small molecule collection was screened for activity against MKP5-CD using a malachite green assay in 384-well format. MKP5-CD and p38α MAPK phosphopeptide (DDE(Nle)(pT)G(pY)VATR) substrate were diluted into PTP buffer (50 mM Tris pH 7.2, 1 mM EDTA, 0.1% β-mercaptoethanol, 0.01% Triton X-100). The screen was performed in two distinct phases. An initial screen against a subset of the compound library was carried out in the following conditions: 1.5 μM MKP5-CD, 25 μM phosphopeptide, 30 min at 37° C. A second follow-up screen was performed with the following modifications: 0.5 μM MKP5-CD, 50 μM phosphopeptide, 15 min at 30° C. Test compounds (20 nL) were dispensed with either an Aquarius (Tecan) pintool system (initial phase) or Echo 550 (Labcyte) acoustic dispenser (follow-up phase). In both phases, the test compound concentration was 20 μM in the 10 μL reaction and the final DMSO was 0.2%. […] The plate was incubated for 10-15 min at room temperature to allow color development and absorbance at 620 nm measured. The signal-to-background (S/B) ratio was calculated from the mean absorbance of vehicle-treated wells with and without enzyme (negative and positive controls; n=32 per condition). Percent inhibition of test wells was calculated from the mean positive and negative controls on each plate. […]

PTP-1B = biological target: T3, PTP-1B (Homo sapiens, UniProt P18031); assay: PTP1B counterscreen (Millipore kit, malachite green detection); type: biochemical; details: FIG. 15; read-out: IC50 against PTP-1B
T3 construct: purchased Millipore 539736
T3 sequence (P18031 1-435): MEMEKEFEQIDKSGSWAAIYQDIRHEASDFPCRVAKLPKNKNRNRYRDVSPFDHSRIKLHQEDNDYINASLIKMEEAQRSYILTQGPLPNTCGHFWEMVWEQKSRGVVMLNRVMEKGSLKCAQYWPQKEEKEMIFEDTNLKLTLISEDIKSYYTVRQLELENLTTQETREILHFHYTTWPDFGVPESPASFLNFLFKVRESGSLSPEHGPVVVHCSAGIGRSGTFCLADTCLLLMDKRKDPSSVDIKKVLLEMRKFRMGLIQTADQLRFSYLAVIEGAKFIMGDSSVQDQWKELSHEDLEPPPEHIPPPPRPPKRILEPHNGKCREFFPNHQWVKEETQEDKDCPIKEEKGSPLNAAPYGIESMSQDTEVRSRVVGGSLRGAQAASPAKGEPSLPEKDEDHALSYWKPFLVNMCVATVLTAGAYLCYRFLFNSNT
Experimental: (§2) To test for 1 activity on STEP-46, a pNPP assay was employed with 1.5 μM STEP46 and 10 mM pNPP. After 30 min at room temperature, absorbance at 405 nm was measured. For comparison, MKP5-CD was tested in the pNPP assay under identical conditions. For PTP1B, the Millipore PTP1B assay kit (#539736) was performed as recommended by the manufacturer except that malachite green was used for detection.

MKP5-CD [3] = biological target: T1, MKP5-CD; assay: Phosphate sensor kinetic assay with full-length p38α MAPK as substrate; type: biochemical; details: 25 μM inhibitor, varying p38α MAPK
Experimental: The phosphate sensor protein (PS) was purchased from Life Technologies (Lot #1962036B). To characterize the activity of MKP5-CD against full length p38α MAPK, 5 nM MKP5-CD and 0.5 μM PS were combined in 50 mM Tris (pH 7.6), 25 mM NaCl, 0.01% Triton X100 and […] and added to a Corning #4511 384-well plate. Using an Echo 550 liquid handler (LabCyte Inc.), either 25 μM compound 1 or neat DMSO were added to a final DMSO concentration of 0.2%. Reactions were initiated with up to 300 μM p38α MAPK, a concentration approximately 5 times the KM of MKP5-CD39, and allowed to proceed at ambient temperature for 20 minutes. Fluorescence was continuously monitored by Tecan Infinite M1000 with excitation at 425 f 5 nm and emission at 454 f 5 nm. Raw fluorescence was converted to phosphate release using a standard curve generated the same day as kinetic experiments. The initial velocity was determined for each well based on reaction progress in the first 120 seconds. These velocities were then plotted against substrate concentration and fit to a mixed-mechanism inhibition curve.

Smad2 = assay: TGF-β1-mediated Smad2 phosphorylation in wild type MEFs; type: cell-based, mouse; details: TGF-β1 1 ng/ml 10 minutes
Experimental: (§3) C2C12 myoblasts were cultured as described previously. Substantively, wild type (mkp-5^+/+) and MKP5-deficient (mkp-5^−/−) mouse embryo fibroblasts (MEFs) were generated from female mice at days 13-14 of pregnancy and established by spontaneous immortalization. C2C12 myoblasts and MEFs were treated with 1 at the indicated concentrations for 24 h. For immunoblotting, C2C12 myoblasts or MKP5 wild type and MKP5-deficient fibroblasts were lysed on ice in lysis buffer and clarified by centrifugation at 20,800×g at 4° C. for 20 min. Protein concentration was determined using BCA reagent according to the manufacturer's instructions (Pierce). Recombinant human TGF-β1 (240-B-002) was purchased from R&D Systems. For phospho-MAPK and MAPK immunoblotting, lysates were resolved by SDS-PAGE and transferred onto nitrocellulose membranes (Bio-Rad). Membranes were blocked with 5% nonfat dry milk or 5% BSA in Tris-buffered saline/Tween 20 (TBS-T) for 1 h at room temperature or overnight at 4° C. Primary antibodies were diluted in 5% BSA or 5% nonfat dry milk in TBS-T. MAPK and Smad2 activation were calculated as the ratio of the indicated phosphorylated MAPK or phosphorylated Smad2 to total MAPK or Smad2, respectively by direct fluorescence quantitation using the Odyssey CLx Imaging System. Images were processed with the LI-COR Image Studio Software.

ERK1/2 [4] = assay: ERK1/2 phosphorylation in wild type MEFs; type: cell-based, mouse
Experimental: as §3

JNK [5] = assay: JNK activation in C2C12 myoblasts (pMAPK/MAPK immunoblot); type: cell-based, mouse
Experimental: as §3

STEP-46 = biological target: T4, STEP-46 (Homo sapiens, UniProt P54829); assay: STEP-46 pNPP counterscreen; type: biochemical; details: pNPP assay, FIG. 15; read-out: IC50 against STEP-46
T4 sequence (P54829 1-565): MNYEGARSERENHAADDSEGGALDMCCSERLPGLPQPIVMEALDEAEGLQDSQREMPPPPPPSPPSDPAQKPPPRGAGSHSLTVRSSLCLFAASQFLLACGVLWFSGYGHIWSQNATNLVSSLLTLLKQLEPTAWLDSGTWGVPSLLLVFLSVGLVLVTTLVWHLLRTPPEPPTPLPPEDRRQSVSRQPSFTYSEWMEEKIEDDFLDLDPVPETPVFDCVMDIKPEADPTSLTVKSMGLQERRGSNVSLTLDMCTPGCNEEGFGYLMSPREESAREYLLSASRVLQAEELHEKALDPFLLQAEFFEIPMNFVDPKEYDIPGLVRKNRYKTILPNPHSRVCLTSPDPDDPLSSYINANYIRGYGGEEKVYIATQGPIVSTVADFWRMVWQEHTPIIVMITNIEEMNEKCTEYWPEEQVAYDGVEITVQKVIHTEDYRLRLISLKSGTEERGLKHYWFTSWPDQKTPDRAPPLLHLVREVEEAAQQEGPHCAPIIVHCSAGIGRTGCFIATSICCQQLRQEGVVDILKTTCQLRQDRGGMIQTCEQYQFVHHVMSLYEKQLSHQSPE
Experimental: as §2

ERK1/2 [6] = assay: ERK1/2 activation in C2C12 myoblasts (pMAPK/MAPK immunoblot); type: cell-based, mouse; details: even at the highest concentration
Experimental: as §3

[7] = tested on: MKP5-CD Y435A, Y435S, Y435W mutants; assay: Binding and inhibition of Tyr435 mutant MKP5-CD constructs; type: biochemical; details: FIG. 3C
Experimental: The catalytic domain of MKP5 (MKP5-CD, residues 320-467) was inserted into a pET-28a vector for expression. Mutant constructs were generated according to the QuikChange II (Agilent) site directed mutagenesis protocol. Constructs were transformed into BL21 (DE3) cells and grown in LB containing 100 μg/mL kanamycin to an OD of 0.8. Protein expression was induced with 1 mM IPTG, and cells were harvested after overnight incubation at 22° C.
as §1, with “Experiments were performed in triplicate and data are presented as means±SD.” left out

JNK [8] = assay: JNK phosphorylation in wild type MEFs; type: cell-based, mouse
Experimental: as §3

p38α MAPK [9] = assay: p38α MAPK phosphorylation in wild type MEFs; type: cell-based, mouse
Experimental: as §3

p38α MAPK [10] = assay: p38α MAPK activation in C2C12 myoblasts (pMAPK/MAPK immunoblot); type: cell-based, mouse
Experimental: as §3

[11] = biological target: T5, catalytic domain of MKP1 (MKP1-CD) (Homo sapiens, UniProt P28562); assay: Malachite green assay of MKP1-CD; type: biochemical
T5 construct: MKP1-CD (human aa 172-314); purchased ARVYS Proteins (Trumbull, CT)
T5 sequence (P28562 172-314): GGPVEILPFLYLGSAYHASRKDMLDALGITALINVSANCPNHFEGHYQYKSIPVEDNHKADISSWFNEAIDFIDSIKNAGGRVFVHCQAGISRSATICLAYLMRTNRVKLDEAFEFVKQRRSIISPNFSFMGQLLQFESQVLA
Experimental: Compound 1 selected from the screen was tested for activity against MKP1 and MKP5 using the malachite green assay. For MKP5-CD, the same conditions for the screening assay were used. For MKP1-CD, the following conditions were used: 1 μM MKP1-CD, 50 μM pTpY, 120 min at 30° C.

## CSc1scc2c1-c1nc(SCC(=O)C(C)(C)C)ncc1CC2 [Compound 1, 3,3-Dimethyl-1-((9-(methylthio)-5,6-dihydrothieno[3,4-h]quinazolin-2-yl)thio)butan-2-one]
MKP5-CD [1]
  Kd: 1 ± 0.2 µM
[2]
  IC50: ~4.2 µM
[2]; resynthesized compound, p38α MAPK phosphopeptide substrate, FIG. 1E, read-out: IC50 against MKP5-CD
  IC50: 3.9 ± 0.6 µM
PTP-1B
  IC50: > 100 µM
MKP5-CD [3]
  mode of inhibition: mixed competitive mode of inhibition
  α of mixed-mechanism inhibition fit: ≈ 4.6
Smad2
  TGF-β1-mediated Smad2 phosphorylation: inhibited
ERK1/2 [4]
  phosphorylation of ERK1/2: not ERK1/2
JNK [5]; 24 h
  JNK activation: increased upon treatment of C2C12 myoblasts but with less effectiveness as compared with p38 MAPK
JNK [5]; highest concentration
  induction of JNK activity: 1.4 fold
STEP-46
  IC50: > 200 µM
ERK1/2 [6]
  activation status of ERK1/2: did not alter
[7]
  binding to and inhibition of Tyr435 mutants: only capable of binding to and inhibiting the activity of the Y435W mutant
JNK [8]
  phosphorylation of JNK: dose-dependent increase
p38α MAPK [9]
  phosphorylation of p38α MAPK: dose-dependent increase
p38α MAPK [10]; 24 h
  activation of p38α MAPK: increased in a dose-dependent manner
p38α MAPK [10]; highest concentration
  induction of p38α MAPK activity: 2.0 fold
[11]; FIG. 1F, read-out: IC50 towards the catalytic domain of MKP1
  IC50: > 60 µM
[11]; MKP1 versus MKP5
  reduction in potency for MKP1 relative to MKP5: 16 fold
